{
  "source": "paper PMC11362529",
  "about": "“Exploring the neuroprotective potential of Nrf2-pathway activators against annonacin toxicity” (Scientific Reports, 2024)",
  "assay_type_in_all_cases": "cell-based, human",
  "key": {"[1]": {"system": "8-OHdG", "assay": "Oxidative DNA damage marker 8-OHdG immunofluorescence", "details": "48 h; for 8-OHdG reactivity: protective concentration of compound + 20 nM annonacin", "procedure": "For immunostaining, cells were seeded in differentiation medium, on 24-well microplates containing PLO/FN-coated 13 mm Ø coverslips, and treated for 48 h as previously described. On the readout day, the medium was removed and cells were fixed, permeabilized and blocked as before. Primary antibody dilutions were made in 1.5% NHS in PBS (Supplementary Table S1) and incubated overnight at 4 °C. On the following day, the coverslips were washed three times with PBS and incubated with host-specific fluorescence secondary antibodies (Supplementary Table S1), for 2 h at RT, protected from light. After another three washes with PBS, cell nuclei were stained with 1:5,000 DAPI (4’,6-diamidino-2-phenylindole, Thermo Fisher Scientific) in PBS, for 15 min at RT. The coverslips were mounted in mowiol and left to dry for 24 h before imaging. Image acquisition for FI quantification was done with a 200 × magnification (20 × objective, 10 × intermediate magnification), or 400x (40 × objective, 10 × intermediate magnification) in the case of pSC-35 and AT8 immunostaining, on a fluorescence microscope Leica-DFC9000GTC (Leica). In the case of phospho-tau AT8, Z-stacks consisting of 18 plane images with a step size of 1 μm were acquired. The image acquisition parameters were identical for all conditions. Quantification of 8-OHdG (8-hydroxyguanosine) FI and tau species was performed using the ImageJ software. Ten-to-fifteen images per condition across triplicates, from different view fields, were used for this purpose. Briefly, TIFF exported images were submitted to background subtraction using the rolling ball method with a radius of 50 pixels. For 8-OHdG analysis, a channel-specific threshold was applied to all images to define the ROI and FI was measured and normalized to the cell number, determined by the DAPI channel. The average value of the different view fields per experimental condition was taken and reported as fold change compared to the control (DMSO-treated) condition. For the analysis of phospho-tau AT270 and pan-tau reactivity, channel specific thresholds were applied to all images. The DAPI channel was used to define nuclei from viable cells, by selecting particles with a size above 15 µm^2 and a circularity of 0.3–1.0. […] These masks were used to quantify the number of somas expressing each of these tau species, as well as the respective FI. The number of AT270-positive somas was divided by the number of pan-tau-positive somas and expressed as a percentage. […] For quantification of pSC-35 and AT8 speckle number and FI, we used CellProfiler™ 4 (https://cellprofiler.org/, Broad Institute Inc., Cambridge, MA, USA) speckle counting pipeline. […]"}, "[2]": {"system": "pSer-202 and pThr-205 tau", "assay": "AT8 (pSer-202/Thr-205 tau) immunofluorescence", "details": "48 h", "procedure": "For immunostaining, cells were seeded in differentiation medium, on 24-well microplates containing PLO/FN-coated 13 mm Ø coverslips, and treated for 48 h as previously described. On the readout day, the medium was removed and cells were fixed, permeabilized and blocked as before. Primary antibody dilutions were made in 1.5% NHS in PBS (Supplementary Table S1) and incubated overnight at 4 °C. On the following day, the coverslips were washed three times with PBS and incubated with host-specific fluorescence secondary antibodies (Supplementary Table S1), for 2 h at RT, protected from light. After another three washes with PBS, cell nuclei were stained with 1:5,000 DAPI (4’,6-diamidino-2-phenylindole, Thermo Fisher Scientific) in PBS, for 15 min at RT. The coverslips were mounted in mowiol and left to dry for 24 h before imaging. Image acquisition for FI quantification was done with a 200 × magnification (20 × objective, 10 × intermediate magnification), or 400x (40 × objective, 10 × intermediate magnification) in the case of pSC-35 and AT8 immunostaining, on a fluorescence microscope Leica-DFC9000GTC (Leica). In the case of phospho-tau AT8, Z-stacks consisting of 18 plane images with a step size of 1 μm were acquired. The image acquisition parameters were identical for all conditions. Quantification of 8-OHdG (8-hydroxyguanosine) FI and tau species was performed using the ImageJ software. Ten-to-fifteen images per condition across triplicates, from different view fields, were used for this purpose. Briefly, TIFF exported images were submitted to background subtraction using the rolling ball method with a radius of 50 pixels. For 8-OHdG analysis, a channel-specific threshold was applied to all images to define the ROI and FI was measured and normalized to the cell number, determined by the DAPI channel. The average value of the different view fields per experimental condition was taken and reported as fold change compared to the control (DMSO-treated) condition. For the analysis of phospho-tau AT270 and pan-tau reactivity, channel specific thresholds were applied to all images. The DAPI channel was used to define nuclei from viable cells, by selecting particles with a size above 15 µm^2 and a circularity of 0.3–1.0. The obtained mask was submitted to “close” and “fill holes” processes to smooth the objects and fill in small holes, followed by nine “dilations” and one “watershed” to obtain a ROI covering exclusively the soma of viable cells. The obtained mask was combined with threshold images of phospho-tau AT270 and pan-tau in order to define the respective ROI of each tau species. These masks were used to quantify the number of somas expressing each of these tau species, as well as the respective FI. The number of AT270-positive somas was divided by the number of pan-tau-positive somas and expressed as a percentage. The AT270 FI was normalized to the pan-tau FI and the ratio presented as fold change relative to the control (DMSO-treated) condition. For quantification of pSC-35 and AT8 speckle number and FI, we used CellProfiler™ 4 (https://cellprofiler.org/, Broad Institute Inc., Cambridge, MA, USA) speckle counting pipeline. Twenty-to-thirty images per condition across triplicates were used for this purpose. ImageJ BIOP JACoP plugin was used for estimating co-localization of AT8 with DAPI-stained nuclei. Data were reported as fold change compared to the control (DMSO-treated) condition, or as Pearsonʹs coefficient values in case the of AT8 co-localization data."}, "[3]": {"system": "LUHMES cells", "assay": "Protective effects against annonacin toxicity, calcein viability assay", "details": "with 20 nM annonacin, glucose-reduced medium, 48 h; 40 μM Ki 696–2, 1 μM HPP-D, 15 μM ezetimibe, 4 μM licochalcone A; most protective or highest non-toxic concentration for the others", "procedure": "The calcein AM green dye (Thermo Fisher Scientific) was diluted in DMSO to obtain a 1 mM stock solution. The stock solution was further diluted in HBSS (Hanks' balanced salt solution), immediately before incubation, to achieve a final working concentration of 1 μM in the well. The medium was removed, the cells were washed once with warm HBSS, and 200 µl of calcein working solution was added to each well. For background correction, 200 µl of calcein working solution was added to a well without cells (background control). After 30 min of incubation at 37 °C, the calcein solution was removed and the cells were washed once with HBSS. Cells were lysed in a 200 µl volume of 1% Triton™ X-100 in PBS (phosphate buffered saline) and the lysate transferred to a 96‐well black plate for the readout. The fluorescence signal was measured on a FLUOstar® Omega plate reader (BMG LabTech, Ortenberg, Germany) at λ Ex/Em = 485/530 nm and data was analyzed with the MARS data analysis software (BMG LabTech). For background correction, we subtracted the background control signal from the measured values of all experimental conditions. Data were expressed as percentage of viability relative to the control (DMSO-treated) condition.\nFor pharmacological treatments, we acquired several previously described Nrf2-pathway activators: ezetimibe (Cayman), licochalcone A (MedChem Express, New Jersey, NJ, USA), bardoxolone methyl, saracatinib and PP2 (AbMole BioScience Inc., Houston, TX, USA). The enantiomers Ki 696–1 and Ki 696–2, and the compound HPP-D were kindly provided by Orion Pharma (Espoo, Finland). All compounds were dissolved in DMSO and stored in small aliquots at -80 °C to avoid freeze–thaw cycles. Compound general toxicity was determined on PLO/FN double-coated 48-well microplates as follows: after 4 days of differentiation, LUHMES cells were incubated with the different Nrf2-pathway activators at concentrations ranging from 1 nM to 100 µM, for 96 h. The cell viability was assessed by calcein assay on day 8 of differentiation. Non-toxic concentrations of the Nrf2-pathway activators were selected and used in the pharmacological treatments, in combination with 20 nM of annonacin, in glucose-reduced differentiation medium, over a period of 48 h, similar to an in vitro model reported before. The protective effects of Nrf2-pathway activators against annonacin toxicity were determined in terms of cell viability with the calcein assay."}, "[4]": {"details": "20 nM annonacin alone, vs control"}, "[5]": {"details": "protective concentration of compound + 20 nM annonacin"}, "[6]": {"details": "protective concentration of compound + 20 nM annonacin, compared to annonacin"}},
  "data": [
    {"smiles": "CCCCCCCCCCCC[C@@H](O)[C@H]1CC[C@H]([C@H](O)CCCC[C@H](O)CCCCC[C@@H](O)CC2=CC(C)OC2=O)O1", "note": "(stereo partly shown) [annonacin]", "values": [
      {"measurement": "increase of 8-OHdG reactivity", "setting": "[1]; 20 nM annonacin alone", "result": 1.5, "unit": "fold over control"},
      {"measurement": "Pearson´s coefficient between AT8 reactivity and DAPI-stained nuclei (r)", "setting": "[2]; 20 nM annonacin alone", "result": 0.58},
      {"measurement": "AT8 fluorescence intensity", "setting": "[2]; [4]", "result": "statistically higher AT8 fluorescence intensity"},
      {"measurement": "number of AT8 speckles per nucleus", "setting": "[2]; [4]", "result": "non-significant propensity to increase the number of AT8 speckles per nucleus"}
    ]},
    {"smiles": "O=C1[C@H](CC[C@H](O)c2ccc(F)cc2)[C@@H](c2ccc(O)cc2)N1c1ccc(F)cc1", "note": "[ezetimibe]", "values": [
      {"measurement": "reduction of annonacin toxicity", "setting": "[3]", "result": 33, "unit": "%"},
      {"measurement": "8-OHdG reactivity", "setting": "[1]", "result": "levels of oxidative DNA damage comparable to healthy control cells"},
      {"measurement": "Pearson´s coefficient between AT8 reactivity and DAPI-stained nuclei (r)", "setting": "[2]; [5]", "result": 0.45},
      {"measurement": "AT8 fluorescence intensity", "setting": "[2]; [6]", "result": "significant reduction"},
      {"measurement": "number of AT8 speckles", "setting": "[2]; [6]", "result": "significant reduction of the number of AT8 speckles"}
    ]},
    {"smiles": "Cn1c(Nc2nc3ccc(C(F)(F)F)cc3s2)nc2cc(C(=O)NCCOCCO)ccc21", "note": "[HPP-D]", "values": [
      {"measurement": "reduction of annonacin toxicity", "setting": "[3]", "result": 21, "unit": "%"},
      {"measurement": "8-OHdG reactivity", "setting": "[1]", "result": "small but significant reduction of 8-OHdG reactivity"}
    ]},
    {"smiles": "C=CC(C)(C)c1cc(/C=C/C(=O)c2ccc(O)cc2)c(OC)cc1O", "note": "[licochalcone A]", "values": [
      {"measurement": "reduction of annonacin toxicity", "setting": "[3]", "result": 34.6, "unit": "%"},
      {"measurement": "8-OHdG reactivity", "setting": "[1]", "result": "levels of oxidative DNA damage comparable to healthy control cells"},
      {"measurement": "Pearson´s coefficient between AT8 reactivity and DAPI-stained nuclei (r)", "setting": "[2]; [5]", "result": 0.38},
      {"measurement": "AT8 fluorescence intensity", "setting": "[2]; [6]", "result": "significant reduction"},
      {"measurement": "number of AT8 speckles", "setting": "[2]; [6]", "result": "significant reduction of the number of AT8 speckles"}
    ]}
  ]
}
